The values below come from paper PMC12844744, “Complexed Linalool with Beta-Cyclodextrin Improve Antihypertensive Activity: Pharmacokinetic and Pharmacodynamic Insights” (Pharmaceuticals, 2025).

Data set [1] in a line: Population PK model, intravenous administration in healthy rats. Format: in vivo, Wistar rats. Conditions: i.v., 2-compartment model, linear elimination, combined error. On the procedure: (§1) Population pharmacokinetic analysis was performed using Monolix® Suite 2019R1 software (Lixoft®, Antony, France). Structural models evaluated included 1- and 2-compartment models, first-order absorption, and linear elimination. Different error models were analyzed to explain the variability of the residual error, including a constant, proportional, and combined error model. […] The models were parameterized in V, ka, ke, and distribution constants (k1-2 and k2-1). The parameters were estimated with a stochastic approximation. The object function value (OFV), represented as −2 times the log-likelihood (−2LL) and Akaike Information Criterion (AIC), was used to compare the models.
(§2) The base model for i.v. and oral administration has been established. For oral linalool, after establishing the base model, new models adding the categorical covariates investigated in the study (complexed linalool administered in healthy rats and complexed linalool administered in SHRs) were developed. The visual analysis of the graphs and statistical tests (Pearson’s correlation and ANOVA) were carried out to verify if there is any relationship between the random effects of the parameters (h) and the covariables that could contribute to improving the model.
(§3) The graphs that correlate the plasma concentrations with the predicted individual or population plasma concentrations were evaluated by individual waste distribution charts (IWRES). Also, to evaluate whether simulations performed from the developed model are capable of reproducing the median and the variability of the observed data, a graph was generated to verify the predicted data visual predictive check (VPC).

The nature of data set [2]: Population PK model with covariates, oral administration data. Format: in vivo, Wistar rats and SHR. On the procedure:
as §1, §2, §3

The subject of data set [3] is spontaneously hypertensive rats (SHR). Description: Acute intravenous effects on blood pressure and heart rate. Format: in vivo, rat. Conditions: i.v. 50 mg/kg, n = 5, mean ± S.E.M. From the text: This protocol aimed to evaluate the acute hemodynamic effects of LIN, administered intravenously (i.v.), on blood pressure (BP) and heart rate (HR) in spontaneously hypertensive rats (SHR) and normotensive Wistar rats. Animals were anesthetized with ketamine and xylazine (Cristália), and following trichotomy of the iliac region, polyethylene (PE) catheters were implanted into the femoral artery and vein.
The catheters consisted of PE-10 segments (internal/external diameter: 0.28/0.61 mm) connected to PE-50 catheter (internal/external diameter: 0.58/0.96 mm). To prevent catheter blockage during the hemodynamic recordings, the arterial and venous catheters were implanted pre-filled with a sterile saline–heparin solution (heparin: 100 UI). […]
Following a 24 h recovery period, baseline physiological parameters, including systolic BP (SBP), diastolic BP (DBP), and heart rate, were recorded. BP was continuously monitored via the arterial catheter connected to a pressure transducer (ADInstruments, São Paulo, Brazil). The signal was amplified and digitized at 1 kHz using a PowerLab 8/35 data acquisition system and analyzed with LabChart 8 Pro software (ADInstruments, São Paulo, Brazil). Once cardiovascular parameters stabilized, SBP, DBP, and HR were recorded as baseline control values. […]

The test system is the same in data set [4]. Description: Acute oral (orogastric) effects on blood pressure and heart rate over 6 h. Format: in vivo, rat. Conditions: oral 50 mg/kg, monitored 6 h, vs vehicle.
The test system is the same in data set [5]. Description: Chronic 60-day oral treatment: blood pressure and heart rate by tail-cuff plethysmography. Format: in vivo, rat. Conditions: 50 mg/kg/day p.o., 60 days, vs SHR vehicle. On the procedure:
(§4) Before starting any treatment, animals were conditioned for one week to minimize stress-related variability in BP and HR measurements. SHRs were randomly assigned to three experimental groups: Group 1 (SHR + Vehicle): Received saline solution (0.1 mL/100 g, p.o.); Group 2 (SHR + LIN): Treated with (-)-linalool (50 mg/kg/day, p.o.); and Group 3 (SHR + LIN/β-CD): Treated with the LIN/β-cyclodextrin inclusion complex (50 mg/kg/day, p.o.). An additional control group of normotensive Wistar rats (Group 4: Wistar + Vehicle) received saline under the same dosing protocol to serve as a baseline.
All treatments were administered orally once daily (between 08:00 and 12:00 h) for a period of 60 days, and cardiovascular assessments were performed with all groups in the afternoon (between 12:00 and 18:00 h), approximately 60 min post-administration. BP and heart rate were measured every five days throughout the treatment period using the tail-cuff plethysmography method (Insight® V2.11, São Paulo, Brazil). Systolic and diastolic blood pressures were measured in triplicate for each animal, and the average of these values was used for data analysis and graphical representation.

Data set [6] in a line: Body weight progression during 60-day treatment. Format: in vivo, rat. Conditions: 50 mg/kg/day p.o., 60 days. Here is the method:
as §4

Data set [7] has as its system isolated superior mesenteric artery rings from SHRs. Description: Vascular reactivity of isolated superior mesenteric artery rings after 60-day treatment. Format: in vivo, rat. Conditions: mesenteric rings from SHR treated 50 mg/kg/day 60 days, mean ± S.E.M.
Data set [8] relates to spontaneously hypertensive rats (SHR). Put plainly: Cardiac mass index after 60-day treatment. Format: in vivo, rat. Conditions: 50 mg/kg/day p.o., 60 days, vs SHR vehicle. Here is the method: After 60 days of treatment period, Wistar and SHRs were euthanized in a carbon dioxide (CO2) chamber. Hearts were carefully excised, and surrounding adipose tissue and vascular structures were meticulously removed. Each heart was weighed using an analytical balance, and the cardiac mass index was calculated by normalizing the heart weight to the total body weight of the animal. A transverse cut was then made, and the left and right ventricles, and thoracic aortas. Both tissues were fixed in 4% formaldehyde for histological processing.

On the set-up of data set [9]: method as in PMID 16596022. Conditions: cited from earlier work.
Where [10] appears, read: 2-compartment model, first-order absorption, covariates Complex and Complex SHR in V and k12.

In the case of `C=CC(C)(O)CCC=C(C)C` (stereo not shown) [LIN, 3,7-dimethyl-1,6-octadien-3-ol], the Vd in data set [1] (Wistar, rat, plasma, iv, 50 mg/kg, read-out: V, volume of distribution (population estimate)) was 22.4 L. For the same molecule, the k el in [1] (Wistar, rat, plasma, iv, 50 mg/kg, read-out: ke, first-order elimination rate (population estimate) (converted)) is 0.000101 s⁻¹. In data set [1], the “k12, distribution constant (population estimate)” value is 0.461 h⁻¹ and the “k21, distribution constant (population estimate)” value was 1.05 h⁻¹. Besides, in data set [2] (setting [10]), the “V, volume of distribution (population estimate)” value was 15.28 L; the “k21, distribution microconstant (population estimate)” value is 0.0711 h⁻¹; the “ka, absorption rate constant (population estimate)” value was 0.226 h⁻¹. In [2] (Wistar and SHR, rat, plasma, 2-compartment model, first-order absorption, covariates Complex and Complex SHR in V and k12, read-out: ke, first-order rate elimination (population estimate) (converted)), the k el is 4.53e-05 s⁻¹. The “V (typical population parameter, as given in text)” value in data set [2] (final model with covariates) worked out at 15.28 L/kg. Further, in [3], the “%HR, percent change in heart rate relative to baseline” value was −54.54 ± 4.84% and the “%MAP, percent change in mean arterial pressure relative to baseline” value was −56.64 ± 5.05%. The “Effect on blood pressure after oral administration” value in [4] is on record as “failed to produce any significant antihypertensive effect”. Besides, the “Effect on arterial pressure, chronic treatment” value in data set [5] was “significantly reduced arterial pressure”. Also, the Body weight progression result in data set [6] is listed as “no significant changes”. Further, the “Emax of contractile response to phenylephrine” value in data set [7] (Phe 10^−10 to 10^−5 M, expressed as percentage of KCl 60 mM contraction, in %) stood at 146.72 ± 12.34. The “Emax of endothelium-independent relaxation to sodium nitroprusside” value in [7] (SNP 10^−13 to 10^−5 M, percentage of Phe-induced contraction, in %) is −121.04 ± 10.45. Also, the “Emax of endothelium-dependent vasorelaxation to acetylcholine” value in data set [7] (in % (unit assumed)) is −70.52 ± 6.80. The “Cardiac mass index (heart weight / body weight)” value in [8] is “not observed”. For the same molecule, the LogP in [9] was ~ 3.3.
